Measured values published in patent US20040010116A1, “Minicell display and products therefrom” (Children's Medical Center Corp., priority 2002, published 2004).
Values belong to the substance of their own block, whether it stands above or below them. Where no end group is shown, it is not given here.

Key:
[1] = molecular target: T1, alpha4 integrin (Homo sapiens, UniProt P13612); experiment: alpha4 integrin binding
T1 sequence (P13612 34-1032): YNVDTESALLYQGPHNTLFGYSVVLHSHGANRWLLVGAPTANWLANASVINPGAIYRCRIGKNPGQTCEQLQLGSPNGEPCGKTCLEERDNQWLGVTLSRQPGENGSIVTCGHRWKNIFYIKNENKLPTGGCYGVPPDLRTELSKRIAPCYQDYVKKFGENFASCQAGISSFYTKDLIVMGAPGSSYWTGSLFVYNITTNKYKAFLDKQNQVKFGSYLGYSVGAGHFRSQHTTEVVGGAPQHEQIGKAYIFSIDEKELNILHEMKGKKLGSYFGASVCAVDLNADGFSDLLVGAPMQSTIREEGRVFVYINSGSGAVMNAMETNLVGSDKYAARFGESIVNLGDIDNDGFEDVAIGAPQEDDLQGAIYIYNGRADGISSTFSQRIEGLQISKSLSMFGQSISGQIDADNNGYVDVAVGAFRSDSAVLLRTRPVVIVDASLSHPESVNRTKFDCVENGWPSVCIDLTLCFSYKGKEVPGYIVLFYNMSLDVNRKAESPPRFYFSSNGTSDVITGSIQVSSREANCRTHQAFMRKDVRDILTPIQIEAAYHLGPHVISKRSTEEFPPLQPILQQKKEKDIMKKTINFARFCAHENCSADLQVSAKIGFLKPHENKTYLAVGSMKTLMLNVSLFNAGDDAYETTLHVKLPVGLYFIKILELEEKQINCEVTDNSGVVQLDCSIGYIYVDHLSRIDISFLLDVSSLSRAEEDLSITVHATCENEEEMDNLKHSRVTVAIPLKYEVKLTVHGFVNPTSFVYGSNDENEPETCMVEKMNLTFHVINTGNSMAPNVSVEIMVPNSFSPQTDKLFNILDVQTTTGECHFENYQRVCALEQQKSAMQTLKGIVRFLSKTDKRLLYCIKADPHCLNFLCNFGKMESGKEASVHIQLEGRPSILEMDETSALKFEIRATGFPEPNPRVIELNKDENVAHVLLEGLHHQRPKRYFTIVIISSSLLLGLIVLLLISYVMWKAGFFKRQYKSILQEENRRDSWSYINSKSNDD
From the text: (§1) Several screening methods were utilized. Most of the methods follow a similar protocol outlined below.
(§2) A tertiary library may be constructed from a third round of screening and those peptides selected may be used in functional screening assays to further isolate peptides of specific activity.

[2] = test system: melanoma cell; experiment: Melanoma cell attachment; assay type: cell-based
From the text: as §1, §2

[3] = test system: Endothelial cell; experiment: Endothelial cell attachment; assay type: cell-based
From the text: as §1, §2

[4] = test system: tumor cells; experiment: Homotypic aggregation of tumor cells; assay type: cell-based
From the text: as §1, §2

[5] = test system: invasion complex; experiment: Invasion complex binding, in vitro studies
From the text: SEQ ID NO: 55 ([…] is a peptide derived and modified from a parent peptide isolated using minicell display. The design objective for the parent peptide was to generate a mini protein with the mechanistic advantages of taxol, but devoid of the toxicity and side effects of taxol-type drugs.

[6] = Induction of apoptosis and cell death; assay type: cell-based
[7] = test system: integrin signaling, CD44 signaling, rhoB; experiment: Integrin/CD44 signaling and microtubule stabilization in vivo
[8] = test system: cell-cell; experiment: Cell-cell adhesion; assay type: cell-based
From the text: as §1, §2

[9] = test system: tumor cells; experiment: Apoptosis of tumor cells; assay type: cell-based
From the text: as §1, §2

[10] = test system: eosinophils; experiment: Activation of apoptosis in eosinophils; assay type: cell-based; conditions: versus control
From the text: SEQ ID NO: 56 (Acetylated-GRGENPS) activates apoptosis in eosinophils. […] Fibronectin in combination with SEQ ID NO: 56 further increased the percentage of apoptotic cells by roughly 70%.

[11] = test system: neutrophils, endothelium, fibrosarcomas melanoma; experiment: Neutrophils, endothelium, fibrosarcomas, melanoma attachment; assay type: cell-based
From the text: as §1, §2

[12] = test system: fibroblast; experiment: Fibroblast attachment; assay type: cell-based
From the text: as §1, §2

[13] = test system: collagenase; experiment: Collagenase induction; assay type: cell-based
From the text: as §1, §2

[14] = molecular target: CD44 (Homo sapiens, UniProt P16070); experiment: CD44 interaction with GAG; assay type: binding
From the text: as §1, §2

[15] = test system: cell; experiment: Cell entry of peptides; assay type: cell-based
From the text: as §1, §2

[16] = Heparin binding
From the text: as §1, §2

[17] = test system: cell/collagen interaction; experiment: Cell/collagen interaction; assay type: cell-based
From the text: as §1, §2

[18] = Tolerability of the peptide in animals; assay type: in vivo
Protocol: To evaluate that effectiveness of SEQ ID NO: 54 against primary tumor growth and metastasis, 1×10^7 cells were injected subcutaneously into the left flank of nude mice. After six weeks the resulting tumors were aseptically dissected out, minced and 1 mm-tumor pieces were transplanted into the right flank of nude mice using a trocar needle. Two weeks later, when tumors were measured approximately 10 mm, mice were assigned to different experimental groups. One group of 24 animals bearing MDA-MB-231 xenografts were divided into 3 groups that received the following treatments one group of 8 animals received a weekly injection of apoptotic peptide (0.3-100 μg/kg for SEQ ID NO: 54) through the peritoneal cavity. […] Tumors were measured once every two days with microcalipers, and tumor volume was calculated as length×width×height×0.5236. Body weights were measured on the day of the injection, 4 days later and weekly thereafter. […] Total leukocyte and platelet counts were determined manually using a hemocytometer. […] Treatment-related toxicity was evaluated based on the differences in body weight, liver and kidney marker enzymes and the hematological parameters between treatment groups. […] Liver, heart, uterus, ovaries, lungs spinal cord and all long bones were evaluated histologically. […]

[19] = test system: β integrin; experiment: β integrin binding
From the text: as §1, §2

[20] = test system: macrophage; experiment: Macrophage recruitment by osteopontin, C5a, fibronectin (activity assay of minicell display peptides); assay type: cell-based
From the text: as §1, §2

Chain of CD44 (P16070 21-742, species assumed): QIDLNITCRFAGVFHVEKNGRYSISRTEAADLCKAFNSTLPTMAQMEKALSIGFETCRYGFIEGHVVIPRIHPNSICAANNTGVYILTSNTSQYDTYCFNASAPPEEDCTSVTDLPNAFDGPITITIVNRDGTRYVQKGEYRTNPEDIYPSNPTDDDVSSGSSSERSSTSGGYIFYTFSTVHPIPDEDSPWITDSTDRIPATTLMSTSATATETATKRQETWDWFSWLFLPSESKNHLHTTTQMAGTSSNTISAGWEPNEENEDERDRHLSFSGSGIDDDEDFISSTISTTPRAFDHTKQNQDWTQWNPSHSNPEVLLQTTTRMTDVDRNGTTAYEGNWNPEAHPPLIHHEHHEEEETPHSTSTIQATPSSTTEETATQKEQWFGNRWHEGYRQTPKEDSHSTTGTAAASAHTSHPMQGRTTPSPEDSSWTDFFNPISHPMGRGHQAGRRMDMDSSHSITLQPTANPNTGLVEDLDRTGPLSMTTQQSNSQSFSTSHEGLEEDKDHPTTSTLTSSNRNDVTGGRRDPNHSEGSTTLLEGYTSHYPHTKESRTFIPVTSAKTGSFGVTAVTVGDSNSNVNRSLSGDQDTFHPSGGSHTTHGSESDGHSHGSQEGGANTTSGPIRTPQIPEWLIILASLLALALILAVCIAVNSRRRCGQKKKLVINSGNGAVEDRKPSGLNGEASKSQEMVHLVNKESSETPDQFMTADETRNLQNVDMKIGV

- FUNCTIONAL ACTIVITY: alpha4 integrin binding [1]: Inhibits alpha4 integrin
Substance: QESPSGTDLLVAGSSP [SEQ ID NO:26]

Substance: DRYLKFRPV [SEQ ID NO:38]
- FUNCTIONAL ACTIVITY: melanoma cell attachment [2]: Inhibits melanoma cell

Substance: VLPTPTPPGYLSSRSSR [SEQ ID NO:42]
- FUNCTIONAL ACTIVITY: endothelial cell attachment [3]: Inhibits endothelial cell

Substance: HGRFILPWWYAFSPS [SEQ ID NO:48]
- FUNCTIONAL ACTIVITY: homotypic aggregation of tumor cells [4]: Inhibit homotypic aggregation

- FUNCTIONAL ACTIVITY: alpha4 integrin binding [1]: Inhibits alpha4 integrin
Substance: LDSAS [SEQ ID NO:20]

- FUNCTIONAL ACTIVITY: alpha4 integrin binding [1]: Inhibits alpha4 integrin
Substance: WTGGDDSGSPSSPS [SEQ ID NO:23]

- FUNCTIONAL ACTIVITY: alpha4 integrin binding [1]: Inhibits alpha4 integrin
Substance: SDV [SEQ ID NO:24]

Substance: PYAGRGDSVVYGLKKKNNQKAEPLIGRKKTR [SEQ ID NO: 55]
- Binding to the invasion complex [5]: binds to the invasion complex
- Apoptosis and cell death [6]: induces apoptosis and cell death
- Integrin signaling versus CD44 signaling [7]: uncouple integrin signaling from CD44 signaling
- Microtubules ([7]; by down stream activation of rhoB): stabilization of microtubules

Substance: KKAKKSRRS [SEQ ID NO:49]
- FUNCTIONAL ACTIVITY: Anti-adhesion (cell-cell) [8]: Anti-adhesion (cell-cell)

Substance: DGGRGDSLGWYRRGRGGARRSKAKKAAAKNNQKSEPLIGRKKT [SEQ ID NO:52]
- FUNCTIONAL ACTIVITY: Apoptotic to tumor cells [9]: Apoptotic to tumor cells

Substance: Acetylated-GRGENPS (Ac-GRGENPS) [SEQ ID NO: 56]
- Increase of the percentage of apoptotic cells [10]: roughly 20%

Substance: KGMNYTVR [SEQ ID NO:40]
- FUNCTIONAL ACTIVITY: neutrophils, endothelium, fibrosarcomas melanoma attachment [11]: Inhibits, neutrophils,

Substance: PNGRGESLAY [SEQ ID NO:37]
- FUNCTIONAL ACTIVITY: fibroblast attachment [12]: Inhibits fibroblast attachment,
- FUNCTIONAL ACTIVITY: collagenase induction [13]: inhibits collagenase induction

Substance: LVPSSKGRGDYLAQSQP [SEQ ID NO:36]
- FUNCTIONAL ACTIVITY: collagenase induction [13]: collagenase induction

- FUNCTIONAL ACTIVITY: CD44 interaction with GAG [14]: Inhibits CD44 interaction with
Substance: YYWRQQQKSDPVVSRRRSPS [SEQ ID NO:44]

Substance: fibronectin [reference compound]
- Change of the percentage of apoptotic cells (in words) [10]: decreased the percentage of apoptotic cells

Substance: CVVVLVL [SEQ ID NO: 19]
- FUNCTIONAL ACTIVITY: cell entry of peptides [15]: Promotes cell entry of peptides

- FUNCTIONAL ACTIVITY: alpha4 integrin binding [1]: Inhibits alpha4 integrin
Substance: EPEESDVGGAADYP [SEQ ID NO:25]

- FUNCTIONAL ACTIVITY: heparin binding [16]: Inhibits heparin binding
Substance: DSVAYGLKSRSK [SEQ ID NO:16]

Substance: DDDRKWGFC [SEQ ID NO:8]
- FUNCTIONAL ACTIVITY: cell/collagen interaction [17]: Inhibits cell/collagen

Substance: Ac-DKMLDP [SEQ ID NO: 54, DKMLDP]
- Therapeutic index [18]: high
- Tolerability of relatively high doses ([18]; more than ten fold the optimum effective dose): no deleterious effects

Substance: KKGKKSKRS [SEQ ID NO:50]
- FUNCTIONAL ACTIVITY: Anti-adhesion (cell-cell) [8]: Anti-adhesion (cell-cell)

Substance: HKFVHWKKPVLPSQNNQ [SEQ ID NO:39]
- FUNCTIONAL ACTIVITY: melanoma cell attachment [2]: Inhibits melanoma cell

- FUNCTIONAL ACTIVITY: β integrin binding [19]: β integrin binding
Substance: TPVVPTVDTYDGRGDSLAY [SEQ ID NO:27]

- FUNCTIONAL ACTIVITY: alpha4 integrin binding [1]: Inhibits alpha4 integrin
Substance: LDSPPAALS [SEQ ID NO:21]

Substance: DRDRAWGYC [SEQ ID NO:10]
- FUNCTIONAL ACTIVITY: cell/collagen interaction [17]: Inhibits cell/collagen

- FUNCTIONAL ACTIVITY: heparin binding [16]: Inhibits heparin binding
Substance: DSVVYGLRSK [SEQ ID NO:14]

Substance: DPGYIGSR [SEQ ID NO:41]
- FUNCTIONAL ACTIVITY: endothelial cell attachment [3]: Inhibits endothelial cell

Substance: RRSRSSTGKKQKSSQSRKTA [SEQ ID NO:51]
- FUNCTIONAL ACTIVITY: Anti-adhesion (cell-cell) [8]: Anti-adhesion (cell-cell)

Substance: VLEP [SEQ ID NO:7]
- FUNCTIONAL ACTIVITY: macrophage recruitment by osteopontin, C5a, fibronectin [20]: Inhibitor of macrophage

Substance: DADQKFGFC [SEQ ID NO:12]
- FUNCTIONAL ACTIVITY: cell/collagen interaction [17]: Inhibits cell/collagen

Substance: KRSR [SEQ ID NO:53]
- FUNCTIONAL ACTIVITY: Apoptotic to tumor cells [9]: Apoptotic to tumor cells

Substance: ESHQKYGYCGGCDRNNP [SEQ ID NO:13]
- FUNCTIONAL ACTIVITY: cell/collagen interaction [17]: Inhibits cell/collagen

Substance: DRQWGLC [SEQ ID NO:11]
- FUNCTIONAL ACTIVITY: cell/collagen interaction [17]: Inhibits cell/collagen

Substance: GRGDNPS [SEQ ID NO:35]
- FUNCTIONAL ACTIVITY: collagenase induction [13]: collagenase induction

- FUNCTIONAL ACTIVITY: CD44 interaction with GAG [14]: Inhibits CD44 interaction with
Substance: KNNQKSEPLIGRKKT [SEQ ID NO:43]

Substance: DQDQRWGYC [SEQ ID NO:9]
- FUNCTIONAL ACTIVITY: cell/collagen interaction [17]: Inhibits cell/collagen

- FUNCTIONAL ACTIVITY: alpha4 integrin binding [1]: Inhibits alpha4 integrin
Substance: AADVESPS [SEQ ID NO:22]

- FUNCTIONAL ACTIVITY: heparin binding [16]: Inhibits heparin binding
Substance: DSVAYGLKSK [SEQ ID NO:15]
